One test addresses XIAP BIR3 (N-His-Tb-BIR3(241-356, XIAP)) (Homo sapiens (Human), UniProt P98170). Type of test: binding. To be noted: 130 nM N-His-Tb-BIR3(241-356, XIAP), 1.4 nM fluoresceinated modified SMAC peptide, 60 minutes room temperature; read-out: XIAP BIR3 FPA IC50.
XIAP BIR3 (N-His-Tb-BIR3(241-356, XIAP)), sequence (P98170 241-356): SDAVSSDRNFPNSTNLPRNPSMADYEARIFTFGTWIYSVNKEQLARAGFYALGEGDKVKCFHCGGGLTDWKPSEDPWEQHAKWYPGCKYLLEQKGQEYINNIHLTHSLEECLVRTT
What is called IC50 is the concentration that inhibits the measured activity by half. Take `CN[C@@H](C)C(=O)N[C@H](C(=O)N1C[C@@H](NC(=O)n2ccc3cc(CN(C(=O)[C@@H]4Cc5ccccc5CN4C(=O)[C@@H](NC(=O)[C@H](C)NC)C(C)(C)C)C(COC)c4ccccc4)ccc32)C[C@H]1C(=O)N[C@@H]1CCCc2ccccc21)C(C)(C)C` (stereo in doubt) [Example 9, (S)-2-((S)-3,3-Dimethyl-2-((S)-2-(methylamino)propanamido)butanoyl)-N-((1-(((3S,5S)-1-((S)-3,3-dimethyl-2-((S)-2-(methylamino)propanamido)butanoyl)-5-(((R)-1,2,3,4-tetrahydronaphthalen-1-yl)carbamoyl)pyrrolidin-3-yl)carbamoyl)-1H-indol-5-yl)methyl)-N-((S)-2-methoxy-1-phenylethyl)-1,2,3,4-tetrahydroisoquinoline-3-carboxamide]: the 50% inhibitory concentration (IC50) came to 130 nM.
As to `CNC(C)C(=O)N[C@H](C(=O)N1C[C@@H](NC(=O)c2ccc(C(=O)N(C[C@@H]3Cc4ccccc4CN3C(=O)[C@@H](NC(=O)[C@H](C)NC)C(C)(C)C)[C@H](C)Cc3ccccc3F)cc2)C[C@H]1C(=O)N[C@@H]1CCCc2ccccc21)C(C)(C)C` (stereo in doubt) [Example 17, N^1-(((S)-2-((S)-3,3-dimethyl-2-((S)-2-(methylamino)propanamido)butanoyl)-1,2,3,4-tetra-hydroisoquinolin-3-yl)methyl)-N^4-((3S,5S)-1-((S)-3,3-dimethyl-2-((S)-2-(methyl-amino)propanamido)butanoyl)-5-(((R)-1,2,3,4-tetrahydro-naphthalen-1-yl)carbamoyl)pyrrolidin-3-yl)-N^1-((R)-1-(2-fluorophenyl)propan-2-yl) terephthalamide], the half-maximal inhibitory concentration (IC50) was found to be 100 nM.
With `CN[C@@H](C)C(=O)N[C@H](C(=O)N1CC(NC(=O)c2cccc(CN(C(=O)[C@@H]3Cc4ccccc4CN3C(=O)[C@@H](NC(=O)[C@H](C)NC)C(C)(C)C)C(COC)c3ccccc3)c2)C[C@H]1C(=O)NC1CCCc2ccccc21)C(C)(C)C` (stereo in doubt) [Example 39, (S)-2-((S)-3,3-Dimethyl-2-((S)-2-(methylamino)propanamido)butanoyl)-N-(3-(((3S,5S)-1-((S)-3,3-dimethyl-2-((S)-2-(methylamino)propanamido)butanoyl)-5-(((R)-1,2,3,4-tetrahydronaphthalen-1-yl)carbamoyl)pyrrolidin-3-yl)carbamoyl)benzyl)-N-((S)-2-methoxy-1-phenylethyl)-1,2,3,4-tetrahydroisoquinoline-3-carboxamide], the IC50 is 80 nM.
`CN[C@@H](C)C(=O)N[C@H](C(=O)N1C[C@@H](NC(=O)c2ccc(CN(CCc3ccccc3)C(=O)[C@@H]3Cc4ccccc4CN3C(=O)[C@@H](NC(=O)[C@H](C)NC)C(C)(C)C)cc2)C[C@H]1C(=O)N[C@@H]1CCCc2ccccc21)C(C)(C)C` [Example 2, (S)-2-((S)-3,3-Dimethyl-2-((S)-2-(methylamino)propanamido)butanoyl)-N-(4-(((3S,5S)-1-((S)-3,3-dimethyl-2-((S)-2-(methylamino)propanamido)butanoyl)-5-(((R)-1,2,3,4-tetrahydronaphthalen-1-yl)carbamoyl)pyrrolidin-3-yl)carbamoyl)benzyl)-N-phenethyl-1,2,3,4-tetrahydroisoquinoline-3-carboxamide]: the half-maximal inhibitory concentration (IC50) was determined as 30 nM.
For `CN[C@@H](C)C(=O)N[C@H](C(=O)N1C[C@@H](NC(=O)c2ccc(CN(C(=O)[C@@H]3Cc4ccccc4CN3C(=O)[C@@H](NC(=O)[C@H](C)NC)C(C)(C)C)[C@H](C)c3cccc(OC)c3)cc2)C[C@H]1C(=O)N[C@@H]1CCCc2ccccc21)C(C)(C)C` [Example 3, (S)-2-((S)-3,3-Dimethyl-2-((S)-2-(methylamino)propanamido)butanoyl)-N-(4-(((3S,5S)-1-((S)-3,3-dimethyl-2-((S)-2-(methylamino)propanamido)butanoyl)-5-(((R)-1,2,3,4-tetrahydronaphthalen-1-yl)carbamoyl)pyrrolidin-3-yl)carbamoyl)benzyl)-N-((R)-1-(3-methoxyphenyl)ethyl)-1,2,3,4-tetrahydroisoquinoline-3-carboxamide], the IC50 was found to be 60 nM.
For `CN[C@@H](C)C(=O)N[C@H](C(=O)N1C[C@@H](NC(=O)c2ccc(CN(C(=O)[C@@H]3Cc4ccccc4CN3C(=O)[C@@H](NC(=O)[C@H](C)NC)C(C)(C)C)[C@H](C)c3ccc(F)cc3)cc2)C[C@H]1C(=O)N[C@@H]1CCCc2ccccc21)C(C)(C)C` [Example 4, (S)-2-((S)-3,3-Dimethyl-2-((S)-2-(methylamino)propanamido)butanoyl)-N-(4-(((3S,5S)-1-((S)-3,3-dimethyl-2-((S)-2-(methylamino)propanamido)butanoyl)-5-(((R)-1,2,3,4-tetrahydronaphthalen-1-yl)carbamoyl)pyrrolidin-3-yl)carbamoyl)benzyl)-N-((R)-1-(4-fluorophenyl)ethyl)-1,2,3,4-tetrahydroisoquinoline-3-carboxamide], the 50% inhibitory concentration (IC50) was 100 nM.
For `CN[C@@H](C)C(=O)N[C@H](C(=O)N1C[C@@H](NC(=O)c2ccc(CN(C(=O)[C@@H]3Cc4ccccc4CN3C(=O)[C@@H](NC(=O)[C@H](C)NC)C(C)(C)C)[C@H](C)c3ccccc3Cl)cc2)C[C@H]1C(=O)N[C@@H]1CCCc2ccccc21)C(C)(C)C` [Example 5, (S)-N-((R)-1-(2-Chlorophenyl)ethyl)-2-((S)-3,3-dimethyl-2-((S)-2-(methylamino)propanamido)butanoyl)-N-(4-(((3S,5S)-1-((S)-3,3-dimethyl-2-((S)-2-(methylamino)propanamido)butanoyl)-5-(((R)-1,2,3,4-tetrahydronaphthalen-1-yl)carbamoyl)pyrrolidin-3-yl)carbamoyl)benzyl)-1,2,3,4-tetrahydroisoquinoline-3-carboxamide], the IC50 was determined as 220 nM.
For `CCC[C@H](c1ccccc1)N(Cc1ccc(C(=O)N[C@H]2C[C@@H](C(=O)N[C@@H]3CCCc4ccccc43)N(C(=O)[C@@H](NC(=O)[C@H](C)NC)C(C)(C)C)C2)cc1)C(=O)[C@@H]1Cc2ccccc2CN1C(=O)[C@@H](NC(=O)[C@H](C)NC)C(C)(C)C` [Example 7, (S)-2-((S)-3,3-Dimethyl-2-((S)-2-(methylamino)propanamido)butanoyl)-N-(4-(((3S,5S)-1-((S)-3,3-dimethyl-2-((S)-2-(methylamino)propanamido)butanoyl)-5-(((R)-1,2,3,4-tetrahydronaphthalen-1-yl)carbamoyl)pyrrolidin-3-yl)carbamoyl)benzyl)-N-((R)-1-phenylbutyl)-1,2,3,4-tetrahydroisoquinoline-3-carboxamide], the IC50 amounted to 190 nM.
Take `CN[C@@H](C)C(=O)N[C@H](C(=O)N1Cc2ccccc2C[C@H]1CN(CCc1ccccc1)C(=O)c1ccc(C(=O)N[C@H]2C[C@@H](C(=O)N[C@@H]3CCCc4ccccc43)N(C(=O)[C@@H](NC(=O)[C@H](C)NC)C(C)(C)C)C2)cc1)C(C)(C)C` [Example 10, N^1-(((S)-2-((S)-3,3-Dimethyl-2-((S)-2-(methylamino)propanamido)butanoyl)-1,2,3,4-tetrahydroisoquinolin-3-yl)methyl)-N^4-((3S,5S)-1-((S)-3,3-dimethyl-2-((S)-2-(methylamino)propanamido)butanoyl)-5-(((R)-1,2,3,4-tetrahydronaphthalen-1-yl)carbamoyl)pyrrolidin-3-yl)-N^1-phenethylterephthalamide]: the concentration for half-maximal inhibition (IC50) was found to be 60 nM.
`CN[C@@H](C)C(=O)N[C@H](C(=O)N1C[C@@H](NC(=O)c2ccc(CN(Cc3cccc(Cl)c3Cl)C(=O)[C@@H]3Cc4ccccc4CN3C(=O)[C@@H](NC(=O)[C@H](C)NC)C(C)(C)C)cc2)C[C@H]1C(=O)N[C@@H]1CCCc2ccccc21)C(C)(C)C` [Example 11, (S)-N-(2,3-Dichlorobenzyl)-2-((S)-3,3-dimethyl-2-((S)-2-(methylamino)propanamido)butanoyl)-N-(4-(((3S,5S)-1-((S)-3,3-dimethyl-2-((S)-2-(methylamino)propanamido)butanoyl)-5-(((R)-1,2,3,4-tetrahydro-naphthalen-1-yl)carbamoyl)pyrrolidin-3-yl)carbamoyl)benzyl)-1,2,3,4-tetra-hydroisoquinoline-3-carboxamide]: the half-inhibitory concentration (IC50) is 70 nM.
As to `CN[C@@H](C)C(=O)N[C@H](C(=O)N1C[C@@H](NC(=O)c2ccc(CN(CCc3ccc4ccccc4c3)C(=O)[C@@H]3Cc4ccccc4CN3C(=O)[C@@H](NC(=O)[C@H](C)NC)C(C)(C)C)cc2)C[C@H]1C(=O)N[C@@H]1CCCc2ccccc21)C(C)(C)C` [Example 12, (S)-2-((S)-3,3-Dimethyl-2-((S)-2-(methylamino)propanamido)butanoyl)-N-(4-(((3S,5S)-1-((S)-3,3-dimethyl-2-((S)-2-(methyl-amino)propanamido)butanoyl)-5-(((R)-1,2,3,4-tetrahydro-naphthalen-1-yl)carbamoyl)pyrrolidin-3-yl)carbamoyl)benzyl)-N-(2-(naphthalen-2-yl)ethyl)-1,2,3,4-tetrahydro-isoquinoline-3-carboxamide], the IC50 stood at 90 nM.

The same test, now with this note: read-out: XIAP BIR3 FPA IC50.
For the molecule `CN[C@@H](C)C(=O)N[C@H](C(=O)N1CC(NC(=O)CN(C(=O)[C@@H]2Cc3ccccc3CN2C(=O)[C@@H](NC(=O)[C@H](C)NC)C(C)(C)C)C(COC)c2ccccc2)C[C@H]1C(=O)NC1CCCc2ccccc21)C(C)(C)C` (stereo in doubt) [Example 40, (S)-2-((S)-3,3-Dimethyl-2-((S)-2-(methylamino)propanamido)butanoyl)-N-(2-(((3S,5S)-1-((S)-3,3-dimethyl-2-((S)-2-(methylamino)propanamido)butanoyl)-5-(((R)-1,2,3,4-tetrahydronaphthalen-1-yl)carbamoyl)pyrrolidin-3-yl)amino)-2-oxoethyl)-N-((S)-2-methoxy-1-phenylethyl)-1,2,3,4-tetrahydroisoquinoline-3-carboxamide], the 50% inhibitory concentration (IC50) turned out to be 60 nM.

Values taken from patent US9603889B2, “IAP antagonists” (BRISTOL-MYERS SQUIBB COMPANY, priority 2012, dated 2017).
